Assay results reported in ChEMBL document CHEMBL1148207, “Dictyosphaeric acids A and B: new decalactones from an undescribed Penicillium sp. obtained from the alga Dictyosphaeria versluyii” (2004).
Calls of active or inactive are those of the source. The rule behind the calls is not given here.

Key:
[1] = system: Staphylococcus aureus; experiment: Antibacterial activity against methicillin-sensitive Staphylococcus aureus at 50 ug/well; format: functional
[2] = system: Candida albicans; experiment: Antimicrobial activity against Candida albicans at 50 ug/well; format: functional
[3] = system: Staphylococcus aureus; experiment: Antibacterial activity against methicillin-resistant Staphylococcus aureus at 200 ug/well; format: functional, organism-based
[4] = system: Staphylococcus aureus; experiment: Antibacterial activity against methicillin-resistant Staphylococcus aureus at 50 ug/well; format: functional
[5] = system: Enterococcus faecium; experiment: Antibacterial activity against vancomycin-resistant Enterococcus faecium at 50 ug/well; format: functional
[6] = system: Enterococcus faecium; experiment: Antibacterial activity against vancomycin-resistant Enterococcus faecium at 200 ug/well; format: functional, organism-based
[7] = system: Candida albicans; experiment: Antimicrobial activity against Candida albicans at 200 ug/well; format: functional, organism-based
[8] = system: Staphylococcus aureus; experiment: Antibacterial activity against methicillin-sensitive Staphylococcus aureus at 200 ug/well; format: functional, organism-based

| SMILES | Activity [1] | Activity [2] | Activity [3] | Activity [4] | Activity [5] | Activity [6] | Activity [7] | Activity [8] | zone of inhibition at 50 µg/disc ([1]; read-out: IZ) | zone of inhibition at 50 µg/disc ([2]; read-out: IZ) | zone of inhibition at 50 µg/disc ([4]; read-out: IZ) | zone of inhibition at 50 µg/disc ([5]; read-out: IZ) |
| --- | --- | --- | --- | --- | --- | --- | --- | --- | --- | --- | --- | --- |
| COc1cc(CO)cc2c1C(=O)c1c(O)cc(O)cc1C2=O | inactive | inactive | inactive | inactive | inactive | inactive | inactive | inactive | – | – | – | – |
| C[C@H]1CCC[C@@H](O)[C@]2(O)C(=O)C[C@H](O)[C@@H]3OC(/C=C/C=C/C=C/C(=O)O)=C(C(=O)O1)[C@@H]32 | inactive | inactive | – | inactive | inactive | – | – | – | – | – | – | – |
| C[C@H]1CCC[C@@H](O)[C@]2(O)C(=O)C=C[C@@H]3OC(/C=C/C=C/C=C/C(=O)O)=C(C(=O)O1)[C@@H]32 [DICTYOSPHAERIC ACID A] | – | – | – | – | – | – | – | – | 11 mm | 7 mm | 12 mm | 7 mm |
